Literature values, collected in patent publication US10694749B2, “Insecticide formulation” (Wellmark International, priority 2016, dated 2020).

System: Mosquito Larvae
Conditions: after ingestion

Substance: Bacillus thuringiensis israelensis [BTI]
- time to death of the first larvae after ingesting the bacteria: 15 to 20 min
